From ChEMBL document CHEMBL4808200, “Identification of a Series of N-Methylpyridine-2-carboxamides as Potent and Selective Inhibitors of the Second Bromodomain (BD2) of the Bromo and Extra Terminal Domain (BET) Proteins” (J Med Chem, 2021)
≈ marks a conversion by molar mass, not a printed value.

Experiments:
[1] = Solubility of the compound in pH 6.5 FaSSIF at […] measured after 16 hrs by HPLC analysis; type: physicochemical
[2] = Permeability of the compound at pH 7.4 by artificial membrane permeability assay; type: ADME; conditions: PAMPA, read-out: permeability
[3] = Intrinsic clearance in Wistar Han rat cryopreserved pooled hepatocytes at 0.5 uM measured up to 60 mins by LC-MS/MS analysis; type: ADME, tissue-based, Hepatocyte; conditions: 1 h
[4] = Intrinsic clearance in Beagle dog cryopreserved pooled hepatocytes at 0.5 uM measured up to 120 mins by LC-MS/MS analysis; type: ADME, tissue-based, Canis lupus familiaris, Hepatocyte; conditions: 2 h
[5] = Intrinsic clearance in human cryopreserved pooled hepatocytes at 0.5 uM measured up to 120 mins by LC-MS/MS analysis; type: ADME, tissue-based, Hepatocyte; conditions: 2 h
[6] = Clearance in Wistar Han rat at 1 mg/kg, iv administered as 1 hr infusion or 3 mg/kg, po administered via gavage by LC-MS/MS analysis; type: ADME, organism-based; conditions: in vivo
[7] = Clearance in Beagle dog at 0.5 mg/kg, iv administered as 1 hr infusion on day 1 and day 7 to achieve a target dose of 1 mg/kg by LC-MS/MS analysis; type: ADME, organism-based, Canis lupus familiaris; conditions: in vivo, dose 0.5-1 mg/kg, time 7 day
[8] = Volume of distribution at steady state in Wistar Han rat at 1 mg/kg, iv administered as 1 hr infusion or 3 mg/kg, po administered via gavage by LC-MS/MS analysis; type: ADME, organism-based; conditions: in vivo, read-out: Vdss
[9] = Volume of distribution at steady state in Beagle dog at 0.5 mg/kg, iv administered as 1 hr infusion on day 1 and day 7 to achieve a target dose of 1 mg/kg by LC-MS/MS analysis; type: ADME, organism-based, Canis lupus familiaris; conditions: in vivo, dose 0.5-1 mg/kg, time 7 day, read-out: Vdss
[10] = Oral bioavailability in Wistar Han rat at 3 mg/kg administered via gavage by LC-MS/MS analysis; type: ADME, organism-based; conditions: in vivo
[11] = Oral bioavailability in Beagle dog; type: ADME, organism-based, Canis lupus familiaris; conditions: in vivo
[12] = Unbound clearance in Wistar Han rat at 1 mg/kg, iv administered as 1 hr infusion or 3 mg/kg, po administered via gavage by LC-MS/MS analysis; type: ADME, organism-based; conditions: in vivo
[13] = Unbound clearance in Beagle dog at 0.5 mg/kg, iv administered as 1 hr infusion on day 1 and day 7 to achieve a target dose of 1 mg/kg by LC-MS/MS analysis; type: ADME, organism-based, Canis lupus familiaris; conditions: in vivo, 168 h, dose 0.5-1 mg/kg, time 7 day
[14] = Half life in Wistar Han rat at 1 mg/kg, iv administered as 1 hr infusion or 3 mg/kg, po administered via gavage by LC-MS/MS analysis; type: ADME, organism-based; conditions: in vivo
[15] = Half life in Beagle dog at 0.5 mg/kg, iv administered as 1 hr infusion on day 1 and day 7 to achieve a target dose of 1 mg/kg by LC-MS/MS analysis; type: ADME, organism-based, Canis lupus familiaris; conditions: in vivo, dose 0.5-1 mg/kg, time 7 day
[16] = Clearance in Beagle dog at 0.5 mg/kg, iv administered as 1 hr infusion on day 1 and day 7 to achieve a target dose of 1 mg/kg by LC-MS/MS analysis relative to liver blood flow; type: ADME, organism-based, Canis lupus familiaris; conditions: in vivo, 168 h, dose 0.5-1 mg/kg, time 7 day
physchem = conditions: buffer, pH 7.4

solubility at 16 h [1] [µg/mL]	Papp [2] [×10⁻⁶ cm/s]	CLH [3] [mL/min/g]	CLH [4] [mL/min/g]	CLH [5] [mL/min/g]	clearance [6] [mL/min/kg]	clearance [7] [mL/min/kg]	Vd [8] [L/kg]	Vd [9] [L/kg]	bioavailability [10] [%]	bioavailability [11] [%]	CL free [12] [mL/min/kg]	CL free [13] [mL/min/kg]	half-life [14] [min]	half-life [15] [min]	QH [16] [%]	chromatographic logD (physchem)	Structure (SMILES)
112 (≈ 319 µM)	21.5	1.4	0.76	< 0.45	22	43	1.7	1.4	62	10	168	122	18	24	80	3.5	CNC(=O)c1cc(C(=O)N[C@H]2[C@@H]3COC[C@@H]32)cc(Cc2ccccc2)n1
> 1000	18.3	< 0.8	0.81	0.8	29	32	2.2	2.1	34	35	96	102	120	36	–	3.2	CNC(=O)c1cc(C(=O)N[C@H]2C[C@@H]2C)cc([C@@H](O)c2ccccc2)n1
575 (≈ 1510 µM)	14.5	1.27	< 0.65	< 0.45	52	9.4	2.1	0.9	17	65	142	23	90	72	–	3.4	CNC(=O)c1cc(C(=O)N[C@H]2[C@@H]3COC[C@@H]32)cc(C(OC)c2ccccc2)n1 (some centres undefined)
